In brackets after ≈: the same amount, converted by molar mass. Several values for one entry are separate records, joined by “and”; a condition that tells them apart may be missing. Equal values may be shown once.
Experiments:
P. yoelii strain YM = P. yoelii strain YM infection in mice, parasitemia and mortality (Example 16); format: in vivo, BALB/c mice; conditions: for % parasitemia, Mean: orally 100 mg/kg/dose 3 and 24 h after infection
[1] = tested on: Staphylococcus aureus ATCC 25923; assay: MIC, macrodilution (Example 17); format: cell-based; conditions: ATCC25923
[2] = Reaction with glutathione, HPLC (Example 26); format: physicochemical; conditions: acetonitrile-phosphate buffer (1:3), 7 days, ambient temperature
Description: Formation of glutathione conjugates of licochalcone A. A solution of 1.5 mg of licochalcone A and 100 mg of glutathione in acetonitrile-0.13 M aqueous potassium phosphate buffer solution pH 75 (1:3) was left for 7 days at ambient temperature protected from light.

[3] = tested on: L. major WHO pentostam resistant strain promastigotes; assay: Pentostam resistant L. major promastigotes, 3H-thymidine uptake (Example 10); conditions: 5 μg/ml
[4] = D + 11, 10 mg per kg twice daily days +1 to +4
[5] = D + 12, 10 mg per kg twice daily days +1 to +4
[6] = D + 12, i.p. 10 mg/kg twice daily D-1, D0
[7] = D + 14, i.p. 10 mg/kg twice daily D-1, D0
[8] = D + 15, 10 mg per kg twice daily days +1 to +4
[9] = D + 16, 10 mg per kg twice daily days +1 to +4
[10] = D + 16, i.p. 10 mg/kg four times daily D + 4 to D + 7
[11] = D + 16, i.p. 10 mg/kg twice daily D-1, D0
[12] = D + 17, 10 mg per kg twice daily days +1 to +4
[13] = D + 18, i.p. 10 mg/kg four times daily D + 4 to D + 7
[14] = D + 18, i.p. 10 mg/kg twice daily D-1, D0
[15] = D + 20, i.p. 10 mg/kg four times daily D + 4 to D + 7
[16] = D + 20, i.p. 10 mg/kg twice daily D-1, D0

C=CC(C)(C)c1cc(/C=C/C(=O)c2ccc(O)cc2)c(OC)cc1O [Licochalcone A, licochalcone A]
Parasitemia, mean (P. yoelii strain YM; D + 10, 10 mg per kg twice daily days +1 to +4): 25.5% | Parasitemia, single mice (P. yoelii strain YM; D + 10, 10 mg/kg/day in 2 injections, days +1 to +6, 10 mg/kg/day): 39.0% and 42.0% | % parasitemia (mean ± SEM) (P. yoelii strain YM; D + 10, 10 mg/kg/day twice daily, 3 h after infection, D + 1 to D + 5): 6.0 ± 3.8% | % parasitemia (mean ± SEM) (P. yoelii strain YM; D + 10, 15 mg/kg/day twice daily, 3 h after infection, D + 1 to D + 5): 0% | Parasitemia, single mice (P. yoelii strain YM; D + 10, 20 mg/kg/day in 2 injections, days +1 to +6, 20 mg/kg/day): 5.0% and 8.0% | Parasitemia, single mice (P. yoelii strain YM; D + 10, 40 mg/kg/day in 2 injections, days +1 to +6, 40 mg/kg/day): 32.0% and 38.0% | mortality (no. of dead mice/total no. of tested mice) (P. yoelii strain YM; D + 10, i.p. 5 mg/kg/day twice daily to D + 3): (2/5) | % parasitemia (mean ± SEM) (P. yoelii strain YM; D + 10, i.p. 5 mg/kg/day twice daily, 3 h after infection and D + 1 to D + 3): 64 ± 5.0% | % parasitemia (mean ± SEM) (P. yoelii strain YM; D + 10, i.p. 10 mg/kg four times daily D + 4 to D + 7): 27.6 ± 12.1% | % parasitemia (mean ± SEM) (P. yoelii strain YM; D + 10, i.p. 10 mg/kg twice daily D-1, D0): 47.4 ± 27.7% | mortality (no. of dead mice/total no. of tested mice) (P. yoelii strain YM; D + 10, i.p. 10 mg/kg/day twice daily to D + 3): (1/5) | % parasitemia (mean ± SEM) (P. yoelii strain YM; D + 10, i.p. 10 mg/kg/day twice daily, 3 h after infection and D + 1 to D + 3): 48 ± 5.4% | mortality (no. of dead mice/total no. of tested mice) (P. yoelii strain YM; D + 10, i.p. 15 mg/kg/day twice daily to D + 3): (1/5) | % parasitemia (mean ± SEM) (P. yoelii strain YM; D + 10, i.p. 15 mg/kg/day twice daily, 3 h after infection and D + 1 to D + 3): 22 ± 11.6% | % parasitemia, Mean (P. yoelii strain YM; D + 10): 43% | Parasitemia, mean (P. yoelii strain YM; [4]): 37.0% | Parasitemia, single mice (P. yoelii strain YM; [4]): 33.0% and 41.0% | Parasitemia, single mice (P. yoelii strain YM; D + 11, 40 mg/kg/day in 2 injections, days +1 to +6, 40 mg/kg/day): 51.0% | Parasitemia, mean (P. yoelii strain YM; [5]): 74.0% | Parasitemia, single mice (P. yoelii strain YM; [5]): 80.0% and 68.0% | % parasitemia (mean ± SEM) (P. yoelii strain YM; D + 12, 10 mg/kg/day twice daily, 3 h after infection, D + 1 to D + 5): 14.4 ± 8.9% | % parasitemia (mean ± SEM) (P. yoelii strain YM; D + 12, 15 mg/kg/day twice daily, 3 h after infection, D + 1 to D + 5): 0% | mortality (no. of dead mice/total no. of tested mice) (P. yoelii strain YM; D + 12, i.p. 5 mg/kg/day twice daily to D + 3): (5/5) | % parasitemia (mean ± SEM) (P. yoelii strain YM; D + 12, i.p. 10 mg/kg four times daily D + 4 to D + 7): 50.4 ± 15.6% | % parasitemia (mean ± SEM) (P. yoelii strain YM; [6]): 55.7 ± 48.4% | mortality (no. of dead mice/total no. of tested mice) (P. yoelii strain YM; [6]): 2/5 | mortality (no. of dead mice/total no. of tested mice) (P. yoelii strain YM; D + 12, i.p. 10 mg/kg/day twice daily to D + 3): 4/5 | % parasitemia (mean ± SEM) (P. yoelii strain YM; D + 12, i.p. 10 mg/kg/day twice daily, 3 h after infection and D + 1 to D + 3): 82% | mortality (no. of dead mice/total no. of tested mice) (P. yoelii strain YM; D + 12, i.p. 15 mg/kg/day twice daily to D + 3): (1/5) | % parasitemia (mean ± SEM) (P. yoelii strain YM; D + 12, i.p. 15 mg/kg/day twice daily, 3 h after infection and D + 1 to D + 3): 4.8 ± 3.2% | Parasitemia, mean (P. yoelii strain YM; D + 13, 10 mg per kg twice daily days +1 to +4): 50.0% | % parasitemia, Mean (P. yoelii strain YM; D + 13): 6.5% | Parasitemia, mean (P. yoelii strain YM; D + 14, 10 mg per kg twice daily days +1 to +4): 35.0% | mortality (no. of dead mice/total no. of tested mice) (P. yoelii strain YM; D + 14, 10 mg/kg/day twice daily to D + 5): 1/5 | % parasitemia (mean ± SEM) (P. yoelii strain YM; D + 14, 10 mg/kg/day twice daily, 3 h after infection, D + 1 to D + 5): 17 ± 17% | % parasitemia (mean ± SEM) (P. yoelii strain YM; D + 14, 15 mg/kg/day twice daily, 3 h after infection, D + 1 to D + 5): 0% | % parasitemia (mean ± SEM) (P. yoelii strain YM; D + 14, i.p. 10 mg/kg four times daily D + 4 to D + 7): 58.6 ± 9.0% | % parasitemia (mean ± SEM) (P. yoelii strain YM; [7]): 0% | mortality (no. of dead mice/total no. of tested mice) (P. yoelii strain YM; [7]): 4/5 | mortality (no. of dead mice/total no. of tested mice) (P. yoelii strain YM; D + 14, i.p. 10 mg/kg/day twice daily to D + 3): (5/5) | mortality (no. of dead mice/total no. of tested mice) (P. yoelii strain YM; D + 14, i.p. 15 mg/kg/day twice daily to D + 3): 1/5 | % parasitemia (mean ± SEM) (P. yoelii strain YM; D + 14, i.p. 15 mg/kg/day twice daily, 3 h after infection and D + 1 to D + 3): 0% | Parasitemia, mean (P. yoelii strain YM; [8]): 2.0% | Parasitemia, single mice (P. yoelii strain YM; [8]): 2.0% | Parasitemia, mean (P. yoelii strain YM; [9]): 0.3% | Parasitemia, single mice (P. yoelii strain YM; [9]): 0.5% and 0.1% | mortality (no. of dead mice/total no. of tested mice) (P. yoelii strain YM; D + 16, 10 mg/kg/day twice daily to D + 5): 2/5 | % parasitemia (mean ± SEM) (P. yoelii strain YM; D + 16, 10 mg/kg/day twice daily, 3 h after infection, D + 1 to D + 5): 0% | % parasitemia (mean ± SEM) (P. yoelii strain YM; D + 16, 15 mg/kg/day twice daily, 3 h after infection, D + 1 to D + 5): 0% | % parasitemia (mean ± SEM) (P. yoelii strain YM; [10]): 75.8 ± 6.6% | mortality (no. of dead mice/total no. of tested mice) (P. yoelii strain YM; [10]): 1/5 | % parasitemia (mean ± SEM) (P. yoelii strain YM; [11]): 0% | mortality (no. of dead mice/total no. of tested mice) (P. yoelii strain YM; [11]): 4/5 | % parasitemia, Mean (P. yoelii strain YM; D + 16): 0% | Parasitemia, mean (P. yoelii strain YM; [12]): 0.0% | Parasitemia, single mice (P. yoelii strain YM; [12]): 0.0% | mortality (no. of dead mice/total no. of tested mice) (P. yoelii strain YM; D + 18, 10 mg/kg/day twice daily to D + 5): 2/5 | % parasitemia (mean ± SEM) (P. yoelii strain YM; D + 18, 10 mg/kg/day twice daily, 3 h after infection, D + 1 to D + 5): 0% | % parasitemia (mean ± SEM) (P. yoelii strain YM; D + 18, 15 mg/kg/day twice daily, 3 h after infection, D + 1 to D + 5): 0% | % parasitemia (mean ± SEM) (P. yoelii strain YM; [13]): 53 ± 25% | mortality (no. of dead mice/total no. of tested mice) (P. yoelii strain YM; [13]): 2/5 | % parasitemia (mean ± SEM) (P. yoelii strain YM; [14]): 0% | mortality (no. of dead mice/total no. of tested mice) (P. yoelii strain YM; [14]): 4/5 | % parasitemia (mean ± SEM) (P. yoelii strain YM; [15]): 19 ± 9.7% | mortality (no. of dead mice/total no. of tested mice) (P. yoelii strain YM; [15]): 3/5 | % parasitemia (mean ± SEM) (P. yoelii strain YM; [16]): 0% | mortality (no. of dead mice/total no. of tested mice) (P. yoelii strain YM; [16]): 4/5 | MIC [1]: 18 µg/mL (≈ 53.2 µM) | reaction with glutathione [2]: decreased amounts of licochalcone A and appearance of two new peaks | growth of pentostam resistant parasites [3]: completely inhibited the growth

— patent publication US6603046B1, “Bis-aromatic a,β-unsaturated ketones” (Lica Pharmaceuticals A/S, priority 1992, dated 2003)
